Experimental data from patent US20250195491A1 (AEVIS BIO, INC., priority 2022, published 2025).

Legend:
[1] = system: iNOS and COX-2; assay: iNOS and COX-2 mRNA (RT-PCR) in LPS-stimulated BV-2 cells; type: cell-based, mouse; conditions: BV-2, 30, 10, or 3.33 μM, LPS 1 μg/mL 6 hours, FIG. 6D
Method: Finally, to determine the mRNA expression levels of iNOS and COX-2, BV-2 was seeded in a 6-well plate (Corning, MD, USA) at 5×10^5 cells/well, and cultured using a DMEM medium (Corning, MD, USA) containing 10% fetal bovine serum (Corning, MD, USA) and 100 U/mL of penicillin/streptomycin (Corning, MD, USA) at 37° C. in a 5% CO2 incubator for one day for stabilization. […] 1 μg/mL of LPS (Sigma, USA) was added to all experimental groups excluding the non-inflammation-induced group and allowed to react at 37° C. in a 5% CO2 incubator for 6 hours.
The drug-treated BV-2 underwent RNA prep according to the kit manual using an RNA prep kit (Monarch Total RNA Miniprep kit, NEB, UK), and the concentration was measured using a nanophotometer (NP80, Implen, Germany). […]
The expression level of each oxidative stress-associated gene in the synthesized cDNA was analyzed and compared using Real-Time PCR (StepOne™Bioscience, USA) equipment. […] The Cr value for the gene of each sample obtained through real-time PCR was normalized by the value of the internal control gene (GAPDH) of each sample, the expression level was estimated inversely by 2ΔΔCT calculation, and the resulting value of each group was quantified and expressed as a percentage relative to the LPS-only treatment group.

[2] = Stability in human plasma (UPLC-MS quantification); type: in vitro ADME; conditions: FIG. 7B
Method: To plot a standard calibration curve, the stock sample was diluted by half with acetonitrile from 125 to 0.39 μg/mL to prepare standard solutions for a total of 10 samples at different concentrations, and the calibration curve was plotted as shown in FIG. 7A.
For the experiment of verifying stability in plasma, 10 μL of the test drug prepared at a concentration of 100 μg/mL was added to 90 μL of human plasma and mixed for 30 seconds, and then immediately after the addition, the plasma-mixed test drug was incubated for 15, 30, 60, or 120 minutes to prepare samples. Afterward, 400 μL of 100% ethyl acetate was added to each sample and extracted using a vortex mixture for 1 minute. […] Initially, the mobile phase B was increased from 5% to 95% until 9 minutes and analyzed, the mobile phase B was maintained 95% until 12 minutes, and then the mobile phase B was lowered to 5% and equilibrated, and used in the subsequent analysis. the flow rate of the mobile phase was 0.3 mL/min, the sample injection volume was 2 μL, and the mass spectrometer was operated in the ESI-positive mode. The spray voltage was set to 3.5 kV, and the flow rates of the nitrogen sheath gas, auxiliary gas, and sweep gas were analyzed as 50, 10, and 1 (arbitrary units), respectively. […]

[3] = system: Aiolos and Ikaros; assay: Aiolos and Ikaros degradation by immunoblotting in MM.1S cells; type: cell-based, human; conditions: immunoblot
Method: To this end, the MM.1S cell line was cultured in an RPMI medium (Corning, MD, USA) supplemented with 10% fetal bovine serum (Corning, MD, USA), 100 U/mL of penicillin (Corning, MD, USA), and 100 μg/mL of streptomycin (Corning, MD, USA) at 37° C. in a 5% CO2 incubator. […] The cells were disrupted by adding a RIPA buffer containing a protease inhibitor cocktail (Thermo Fisher Scientific) and centrifuged at 14,000 rpm for 15 minutes at 4° C. to obtain a cell extract. Equal amounts of the cell extract were loaded, and proteins were separated through SDS-PAGE and then transferred to a PVDF membrane. The protein-transferred membrane was blocked using skim milk, incubated with a primary antibody for 3 hours at room temperature, and then incubated with an HRP-conjugated secondary antibody for 1 hour at room temperature. The resulting product was washed with TBS-T three times between steps. Detection was performed using a chemoluminescence reagent (Thermo Fisher Scientific), and confirmed using Chemidoc (iBright CL1500, Invitrogen, CA, USA). Aiolos (#15103), Ikaros (#9034) and GAPDH (#2118S) antibodies used as primary antibodies and a secondary antibody were purchased from Cell Signaling Technology (Danvers, MA, USA).
Additionally, the expression of Aiolos and Ikaros, mediated by 3-MP, was confirmed over time. […]

## Nc1cccc2c1C(=S)N(C1CCC(=O)NC1=O)C2=O (centres unmarked) [3-MP, 3-thiopomalidomide]
[1]
  mRNA expression of oxidative stress-associated genes (iNOS and COX-2): can effectively inhibit the mRNA expression of an oxidative stress-associated gene
[2]; 0 to 120 minutes
  stability in human plasma over time: maintained without significant changes in plasma from 0 to 120 minutes
[2]; 0 minutes
  plasma level immediately after plasma addition: 80 µg/mL
[3]; 10 μM, 1, 4, 8, 12, or 24 hours, FIG. 3B
  expression of Aiolos and Ikaros over time: does not reduce the expression of Aiolos and Ikaros
[3]; 0.000128-10 μM, 4 hours, FIG. 3A
  expression of Aiolos and Ikaros, by concentration: does not reduce the expression of Aiolos and Ikaros
